Reference: publication PMC12616682, “Identification of a Highly Cooperative PROTAC Degrader Targeting GTP-Loaded KRAS(On) Alleles” (Journal of the American Chemical Society, 2025)
“Also recorded” adds a separate entry of the source. Read-outs that look alike come from different tables or passages of the source.

What was measured:
[1] = target: T1, KRAS^G12R in Cal-62 cells (Homo sapiens, UniProt P01116, G12R); experiment: Endogenous KRAS degradation by Western blot in Cal-62 cells; format: cell-based; conditions: Cal-62 (G12R)
T1 construct: Potent degradation of endogenous KRAS^G12R was achieved by ACBI4 in the Cal-62 cell line; host or cells: Cal-62

[2] = target: T2, KRAS^Q61L in SW948 cells (Homo sapiens, UniProt P01116, Q61L); experiment: Endogenous KRAS degradation by Western blot in SW948 cells; format: cell-based
T2 construct: host or cells: SW948

[3] = target: KRAS^WT-GDP (Homo sapiens, UniProt P01116); experiment: Binary SPR KRAS^WT-GDP (protocol from Lito et al.); conditions: read-out: KRAS^WT-GDP KD
[4] = tested on: Calu-6 cells; experiment: CellTiter-Glo anti-proliferation, Calu-6; format: cell-based, human; conditions: Calu-6 (Q61K)
[5] = target: T3, HiBiT-KRAS^G12R in Cal-62 cells (Homo sapiens, UniProt P01116, G12R); experiment: HiBiT degradation assay, HiBiT-KRAS^G12R Cal-62 cells; format: cell-based; conditions: Cal-62 (HiBitG12R)
T3 construct: generated a HiBiT-KRAS^G12R Cal-62 knock-in cell line using the CRISPR Cas9 technology; endogenous in cells; host or cells: Cal-62 HiBiT KRAS G12R (in-house CRISPR knock-in)
Method: (Gibco) with 10% FBS in a humidiﬁed cell incubator at 37 °C and 5% CO2.
Plasmids pSpCas9 BB-2A-GFP (PX458) containing gRNA, Cas9 and GFP sequences and […] plasmid containing ssDNA donor template were purchased from Genscript. Cal-62 cells were plated at 5x10^5 cells in a 6-well plate and left to adhere overnight. The next day, the transfection plasmids (0.5 µg of each gRNA plasmid and 0.5 µg of donor template) were diluted in Opti-MEM, combined with Lipofectamine solution in Opti-mem according to the manufacturer’s protocol and incubated for 20 min at RT. The mixture was added to the cells and incubated for 24 h. The next day the media was exchanged, and the cells were left to incubate for another 24 h. GFP positive cells were single-cell sorted into 96-well plates using ﬂuorescence-activated cell sorting (FACS) at the Flow Cytometry and Cell Sorting Facility (University of Dundee). Sorted cells were left to grow in conditioned media supplemented with 20% FBS for 3 weeks. Formed colonies were tested for the expression of HiBiT KRAS using the Nano-Glo® HiBiT Lytic system (Promega). The positive clones were additionally tested for insertion of the HiBiT tag by western blotting for KRAS (mouse anti-KRAS, LsBio) and HiBiT (mouse anti-HiBiT, Promega) and the insert was further conﬁrmed by Sanger sequencing. […]
gRNA1: 5’ […] 3’, gRNA2: 5’ […] 3’, gRNA 3: 5’ […]
template DNA: 5’ caatccagctt tatttgacac tcattctctc aactctcatc tgattcttac tgttaatatt tatccaagag aactactgcc atgatgcttt aaaagttttt ctgtagctgt tgcatattga cttctaacac ttagaggtgg gggtccacta ggaaaactgt aacaataaga gtggagatag ctgtcagcaa cttttgtgag ggtgtgctac agggtgtaga gcactgtgaa gtctctacat gagtgaagtc atgatatgat cctttgagag cctttagccg ccgcagaaca gcagtctggc tatttagata gaacaacttg attttaagat aaaagaactg tctatgtagc atttatgcat ttttcttaag cgtcgatgga ggagtttgta aatgaagtac agttcattac gatacacgtc tgcagtcaac tggaattttc atgattgaat tttgtaaggt attttgaaat aatttttcat ataaaggtga gtttgtatta aaaggtactg gtggagtatt tgatagtgta ttaaccttat gtgtgacatg ttctaatata gtcacatttt cattattttt attataaggc ctgctgaaa […]
atg[…]act gaGtaCaaGctCgtAgtagttggag ctCgtggc gta ggc aag agt gcc ttA acAatCcaActaattcagaatcat tttgtggacg aatatgatcc aacaatagag gtaaatcttg ttttaatatg catattactg gtgcaggacc attctttgat acagataaag gtttctctga ccattttcat gagtacttat tacaagataa ttatgctgaa agttaagtta tctgaaatgt accttgggtt tcaagttata tgtaaccatt aatatgggaa ctttactttc cttgggagta tgtcagggtc catgatgttc actctctgtg cattttgatt ggaagtgtat ttcagagttt cgtgagaggg tagaaatttg tatcctatct ggacctaaaa gacaatcttt ttattgtaac ttttattttt atgggtttct tggtattgtg acatcatatg taaaggttag atttaattgt actagtgaaa tataattgtt tgatggttga tttttttaaa cttcatcagc agtattttcc tatcttcttc tcaacattag agaacctaca actaccggat aaattttaca aaatgaatta tttgcctaag gtgtggttta tataaaggta ctattaccaa ctttaccttt gctttgttgt catttttaaa tttactcaag gaaatactag gatttaaaaa aaaattcctt 3’
Degradation via Detection of Split Nanoluciferase (HiBiT)
To assess PROTAC-mediated degradation of HiBiT-tagged KRAS constructs, cells were seeded at […]
further incubated at 37 °C for 4 and 24 h. Following incubation, 20 µL per well of Promega Nano-Glo® HiBiT lytic detection reagent mix (Promega Nano-Glo® HiBiT Lytic Detection System […]
plotted as percent of DMSO control.

[6] = target: T3, HiBiT-KRAS^G12R in Cal-62 cells; experiment: Kinetic degradation (live mode), Cal-62 HiBiT KRAS^G12R cells; format: cell-based; conditions: Cal62-HiBit (G12R)
[7] = target: T4, KRAS^G12R in KP-2 cells (Homo sapiens, UniProt P01116, G12R); experiment: Endogenous KRAS degradation by Western blot in KP-2 cells; format: cell-based; conditions: KP-2 (G12R)
T4 construct: host or cells: KP-2

[8] = tested on: Cal-62 cells; experiment: CellTiter-Glo anti-proliferation, Cal-62; format: cell-based, human; conditions: Cal-62 (G12R)
[9] = target: T5, KRAS^Q61K in Calu-6 cells (Homo sapiens, UniProt P01116, Q61K); experiment: Endogenous KRAS degradation by Western blot in Calu-6 cells; format: cell-based; conditions: Calu-6 (Q61K)
T5 construct: host or cells: Calu-6

[10] = target: T6, HiBiT-KRAS^G12D in GP5d cells (Homo sapiens, UniProt P01116, G12D); experiment: HiBiT degradation assay, HiBiT-KRAS^G12D GP5d cells; format: cell-based; conditions: Gp5D (HiBit-G12D)
T6 construct: host or cells: GP5d HiBiT KRAS G12D

[11] = target: T7, KRAS^G12D in GP5d cells (Homo sapiens, UniProt P01116, G12D); experiment: Endogenous KRAS degradation by Western blot in GP5d cells; format: cell-based
T7 construct: comparison of the degradative effect on endogenous KRAS; host or cells: GP5d

[12] = target: HRAS in Cal-62 cells (Homo sapiens, UniProt P01112); experiment: Western blot of HRAS levels in Cal-62 cells
Sequence of HRAS in Cal-62 cells (P01112 whole entry): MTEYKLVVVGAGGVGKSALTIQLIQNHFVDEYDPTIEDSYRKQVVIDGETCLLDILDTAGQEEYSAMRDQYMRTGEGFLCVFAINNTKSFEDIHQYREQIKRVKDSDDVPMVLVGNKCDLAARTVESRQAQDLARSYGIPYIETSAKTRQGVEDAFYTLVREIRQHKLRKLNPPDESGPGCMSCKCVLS

[13] = target: NRAS in Cal-62 cells (Homo sapiens, UniProt P01111); experiment: Western blot of NRAS levels in Cal-62 cells
Sequence of NRAS in Cal-62 cells (P01111 whole entry): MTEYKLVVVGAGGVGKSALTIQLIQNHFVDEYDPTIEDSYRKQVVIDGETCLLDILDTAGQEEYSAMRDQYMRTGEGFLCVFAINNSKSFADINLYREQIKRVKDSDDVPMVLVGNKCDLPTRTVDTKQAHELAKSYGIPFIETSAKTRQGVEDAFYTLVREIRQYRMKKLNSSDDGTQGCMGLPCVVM

[14] = tested on: HiBiT-tagged KRAS mutants in GP5d cells; experiment: Degradation of retrovirally transduced HiBiT-tagged KRAS mutants in GP5d cells; format: cell-based, human; conditions: 18 h
[15] = tested on: Cal-62 cells; experiment: Whole cell proteomics MS analysis of Cal-62 cells; format: cell-based, human; conditions: 1 µM, 6 h, FDR<0.05
[16] = tested on: A375 cells; experiment: CellTiter-Glo anti-proliferation, A375 (KRAS independent); format: cell-based, human
[17] = Homo sapiens, 72 h, read-out: CTG 72h Ic50

Cc1ncsc1-c1ccc([C@H](CO)NC(=O)[C@@H]2C[C@@H](O)CN2C(=O)[C@H](C(C)C)n2cc(OCCCCN3CCCN(c4nccc(-c5noc([C@@]6(C)CCCc7sc(N)c(C#N)c76)n5)n4)[C@@H](C)C3)nn2)cc1 [ACBI3, reference compound]
DMax 4h ([1]; 4 h): unstable | Dc50 4h ([1]; 4 h): unstable | Dmax ([1]; 18 h, read-out: DMax 18h): 9% | DC50 ([1]; 18 h, read-out: Dc50 18h): 0.282 µM | DMax 4h ([2]; 4 h): unstable | Dc50 4h ([2]; 4 h): unstable | Dmax ([2]; 18 h, read-out: DMax 18h): 45% | DC50 ([2]; 18 h, read-out: Dc50 18h): 10 µM | Kd [3]: 0.0049 ± 0.0026 µM | IC50 [4, 17]: 0.338 µM | DMax 4h ([5]; 4 h): unstable | Dc50 4h ([5]; 4 h): unstable | Dmax ([5]; 24 h, read-out: DMax 24h): 31% | DC50 ([5]; 24 h, read-out: Dc50 24h): 0.114 µM | 1/K (Tau) [6]: unstable | Plateau (degradation rate) [6]: unstable | Plateu/ Tau [6]: unstable | DMax 4h ([7]; 4 h): unstable | Dc50 4h ([7]; 4 h): unstable | Dmax ([7]; 18 h, read-out: DMax 18h): 50% | DC50 ([7]; 18 h, read-out: Dc50 18h): 0.961 µM | CTG 72h Ic50 [8]: unstable | Dc50 4h ([9]; 4 h): unstable | Dmax ([9]; 4 h, read-out: DMax 4h): 11% | DMax 18h ([9]; 18 h): unstable | Dc50 18h ([9]; 18 h): unstable | Dmax ([10]; 4 h, read-out: DMax 4h): 79% | DC50 ([10]; 4 h, read-out: Dc50 4h): 0.0099 µM | Dmax ([10]; 24 h, read-out: DMax 24h): 94% | DC50 ([10]; 24 h, read-out: Dc50 24h): 0.0025 µM | Dmax ([11]; 4 h, read-out: DMax 4h): 98.3% | DC50 ([11]; 4 h, read-out: Dc50 4h): 0.0073 µM | Dmax ([11]; 18 h, read-out: DMax 18h): 100%

CC(C)C(C(=O)N1CC(O)CC1C(=O)NCc1ccc2cnn(C)c2c1)n1nnc2c1CCC(CCCN1CCCN(c3nccc(-c4noc(C5(C)CCCc6sc(N)c(C#N)c65)n4)n3)C(C)C1)C2 (stereo not drawn) [ACBI4]
Dmax ([12]; CAL-62, read-out: HRAS Dmax): 72% | window of HRAS degradation over KRAS degradation ([12]; Cal-62, DC50 637 nM vs 382 nM): ca. 2 fold | DC50 ([12]; read-out: HRAS DC50, Cal-62 cells, 4 h, Western blot): 0.637 µM | NRAS degradation [13]: degradation of NRAS only at very high concentrations | Dmax ([1]; 4 h, read-out: DMax 4h): 88% | DC50 ([1]; 4 h, read-out: Dc50 4h): 0.382 µM | Dmax ([1]; 18 h, read-out: DMax 18h): 93% | DC50 ([1]; 18 h, read-out: Dc50 18h): 0.162 µM | Dmax ([2]; 4 h, read-out: DMax 4h): 58% | DC50 ([2]; 4 h, read-out: Dc50 4h): 0.3 µM | Dmax ([2]; 18 h, read-out: DMax 18h): 65% | DC50 ([2]; 18 h, read-out: Dc50 18h): 1 µM | CTG 72h Ic50 [4]: unstable | Dmax ([5]; 4 h, read-out: DMax 4h): 80% | DC50 ([5]; 4 h, read-out: Dc50 4h): 0.08 µM | Dmax ([5]; 24 h, read-out: DMax 24h): 87% | DC50 ([5]; 24 h, read-out: Dc50 24h): 0.205 µM | 1/K (Tau) [6]: 0.689 µM | Plateau (degradation rate) [6]: 0.2774 min⁻¹ | Plateu/ Tau [6]: 6708 M⁻¹ s⁻¹ | degradation of HiBiT-tagged KRAS mutant panel (in words) [14]: induce the degradation of all KRAS alleles | Dmax ([7]; 4 h, read-out: DMax 4h): 91% | DC50 ([7]; 4 h, read-out: Dc50 4h): 0.316 µM | Dmax ([7]; 18 h, read-out: DMax 18h): 82% | DC50 ([7]; 18 h, read-out: Dc50 18h): 0.151 µM | IC50 [8, 17]: 0.174 µM | Dmax ([9]; 4 h, read-out: DMax 4h): 34% | DC50 ([9]; 4 h, read-out: Dc50 4h): 0.274 µM | Dmax ([9]; 18 h, read-out: DMax 18h): 68% | DC50 ([9]; 18 h, read-out: Dc50 18h): 0.157 µM | Dmax ([10]; 4 h, read-out: DMax 4h): 84% | DC50 ([10]; 4 h, read-out: Dc50 4h): 0.009 µM | Dmax ([10]; 24 h, read-out: DMax 24h): 93% | DC50 ([10]; 24 h, read-out: Dc50 24h): 0.002 µM | Dmax ([11]; 4 h, read-out: DMax 4h): 96.5% | DC50 ([11]; 4 h, read-out: Dc50 4h): 0.007 µM | Dmax ([11]; 18 h, read-out: DMax 18h): 99% | DC50 ([11]; 18 h, read-out: Dc50 18h): 0.007 µM | Log2 Difference CDKN1C ([15]; ACBI4/DMSO): 1.09 | Log2 Difference FOSL1 ([15]; ACBI4/DMSO): -0.93 | Log2 Difference G0S2 ([15]; ACBI4/DMSO): -1.35 | Log2 Difference KRAS ([15]; ACBI4/DMSO): -0.94 | Log2 Difference NRAS ([15]; ACBI4/DMSO): -1.86 | Log2 Difference RHOB ([15]; ACBI4/DMSO): 2.12 | Log2 Difference CDKN1C ([15]; ACBI4/Neg Ctr): 1.24 | Log2 Difference FOSL1 ([15]; ACBI4/Neg Ctr): -0.7 | Log2 Difference G0S2 ([15]; ACBI4/Neg Ctr): -1.11 | Log2 Difference KRAS ([15]; ACBI4/Neg Ctr): -0.79 | Log2 Difference NRAS ([15]; ACBI4/Neg Ctr): -1.48 | Log2 Difference PLAU ([15]; ACBI4/Neg Ctr): -0.73 | Log2 Difference RHOB ([15]; ACBI4/Neg Ctr): 2.07 | Log2 Difference TSPYL4 ([15]; ACBI4/Neg Ctr): 0.96 | IC50 ([16]; Homo sapiens, A-375, 144 h, A375 (KRAS WT; KRAS independent), read-out: CTG 144h Ic50): > 3 µM | antiproliferative effect (in words) ([16]; KRAS-independent A375 cell line): No antiproliferation; also recorded: No antiproliferative effect was observed
